Data as given in paper PMC9317966, “Structure-function analysis of the AMPK activator SC4 and identification of a potent pan AMPK activator” (Biochemical Journal, 2022).

Key:
C2C12 myoblasts = test: C2C12 oxygen consumption rate (Seahorse), mitochondrial function; type: cell-based, Murine; conditions: for basal respiration, ATP production, maximal respiration, spare respiratory capacity, non-mitochondrial oxygen consumption and coupling efficiency: 1 h
Experimental: Murine C2C12 myoblasts were plated at 1 × 10^4 cells/well into Agilent Seahorse XFe24 Cell Culture Microplates in DMEM (life Technologies, Australia) containing 10% (v/v) fetal calf serum, 1% L-glutamine (v/v), and 1% (v/v) antibiotic solution (100 unit/ml penicillin/streptomycin) at 37°C in an atmosphere of 5% CO2. The next day, cells were switched to Seahorse basal assay media (Agilent, cat#: 102353-100; 48.5 ml) containing Glutamax (500 µl of 100×; Gibco, cat#35050), D-glucose (Sigma–Aldrich cat#: G8769) and sodium pyruvate (100×; Gibco cat#: 11360-070) at pH 7.4. MK-8722 at varying doses (0, 1, 10 µM) was incubated with myotubes 1 h prior to experiment, and the assay performed by titrating oligomycin (2 µM), FCCP (2 µM), and rotenone (2 µM) plus antimycin A (2 µM) as indicated. A Seahorse XFe24 Flux Analyzer (Seahorse Biosciences) was used to measure Oxygen Consumption Rate (OCR) at three time points during basal respiration and after each injection. Cells were lysed in equal volume (20 µl) and OCR measurements were normalised to total protein determined by polyacrylamide electrophoresis (5 µl lysate/well) and stain-free imaging.
Lysates were assessed for phosphorylation of AMPKα-Thr172 by immunoblot. n = 3, data presented as mean T172 phosphorylation (arbitrary units) ± SEM. Statistical significance vs. respective vehicle treatment was performed using unpaired, two-tailed Student’s t-test. **** P < 0.0001 indicates significant increase in a-Thr172 phosphorylation relative to vehicle treated WT γ1AMPK. Representative immunoblots are shown. (B) C2C12 myoblast oxygen consumption rate following treatment of MK-8722 (0, 1, 10 µM) for 1 h and titration of specific respiration modulators. (C-I) Parameters of mitochondrial function. n = 6-7, data presented as mean oxygen consumption rate ± SEM. […] (J) Lysates were assessed for total protein content following the respiration assay.

[1] = tested on: HepG2 cells and C2C12 myotubes; design: method as in PMID 28705990; conditions: cited from earlier work
[2] = tested on: HEK293T/17 cells expressing WT γ1AMPK; test: α-Thr172 phosphorylation immunoblot, HEK293T/17 cells transiently expressing WT γ1AMPK; type: cell-based; conditions: WT γ1-expressing cells, 2.5 µM, 60 min
Experimental: To explore this dose-dependent response, we used HEK293T/17 cells transiently expressing WT γ1AMPK or the AMP-insensitive γ1 mutant R299G (Supplementary Figure S4A). […] One explanation is that 2.5 µM MK-8722 caused indirect activation of AMPK (α-Thr172 phosphorylation) by inducing a metabolic stress leading to rises in AMP/ATP and ADP/ATP ratios. We examined the effect of MK-8722 incubation on C2C12 mitochondrial function (Supplementary Figure S4B–I).
HEK293T/17, HEK293T, COS7, HeLa and PC3 cells (ATCC) were maintained in Dulbecco's Modified Eagle's medium (DMEM; Sigma–Aldrich) supplemented with 10% fetal bovine serum (FBS; Assay Matrix) at 37°C and 5% CO2. Primary hepatocytes from wild type mice were prepared using the collagenase perfusion method and cultured as described previously. […]
(§1) All samples were separated on 12% SDS–PAGE gels and transferred to an Immobilon-FL PVDF membrane (Merck Millipore). […] Immunoblots were visualised on the Odyssey Infrared Imaging System (LI-COR Biosciences) and immunoreactive bands analysed and quantified using Image Studio Software (LI-COR Biosciences).
Lysates were assessed for phosphorylation of AMPKα-Thr172 by immunoblot. n = 3, data presented as mean T172 phosphorylation (arbitrary units) ± SEM. […] (J) Lysates were assessed for total protein content following the respiration assay.

COS7 cells = test: Immunoblot of AMPK signalling in COS7 cells; type: cell-based; conditions: COS7, 2.5 µM, 1 h
Experimental: To evaluate the efficacy of MSG011 in cellulo, we incubated mouse primary hepatocytes with 2.5 µM MSG011 for 60 min and tracked changes in phosphorylation of AMPK α-Thr172 (marker of activation) and the AMPK substrate acetyl-CoA carboxylase (ACC) Ser79 (AMPK signalling marker).
HEK293T/17, HEK293T, COS7, HeLa and PC3 cells (ATCC) were maintained in Dulbecco's Modified Eagle's medium (DMEM; Sigma–Aldrich) supplemented with 10% fetal bovine serum (FBS; Assay Matrix) at 37°C and 5% CO2. Primary hepatocytes from wild type mice were prepared using the collagenase perfusion method and cultured as described previously. Cultures were incubated with fresh DMEM (no FBS) for 2 h prior to 1 h treatment with MSG011 (dissolved in DMSO) or phenformin (dissolved in H2O). Adherent HEK293T/17 cells at ∼50% confluency were triply transfected with AMPK α1 (pcDNA3.1 vector), β1 (COOH-terminal MYC fusion, pcDNA3.1 vector) and WT γ1 or γ1-R299G mutant (NH2-terminal HA fusion, pMT2 vector) in the presence of FuGENE HD transfection reagent (Promega) as per the manufacturers protocol. […]
as §1

basal respiration, ATP production, maximal respiration, spare respiratory capacity, non-mitochondrial oxygen consumption and coupling efficiency (C2C12 myoblasts; 1 µM) | basal respiration, ATP production, maximal respiration, spare respiratory capacity, non-mitochondrial oxygen consumption and coupling efficiency (C2C12 myoblasts; 10 µM) | SMILES | cell viability by total protein stain (C2C12 myoblasts; 0, 1, 10 µM, after respiration assay) | α-Thr172 phosphorylation ([1]; above 1 µM) | AMPK signalling ([1]; below 1 µM, in the absence of increased α-Thr172 phosphorylation) | phosphorylation of α-Thr172 [2] | AMPK signalling (phosphorylation of ACC-Ser79 and raptor-Ser792) (COS7 cells)
not | significantly impaired | O[C@@H]1CO[C@H]2[C@@H]1OC[C@H]2Oc1nc2nc(-c3ccc(-c4ccccc4)cc3)c(Cl)cc2[nH]1 [MK-8722, reference compound] | not due to loss of cell viability | elevated α-Thr172 | stimulate AMPK signalling | significantly increased | –
– | – | CC(=O)NC1CC=C(c2ccc(-c3nc4nc(Oc5ccc(C)c(C(=O)O)c5)[nH]c4cc3Cl)cc2)CC1 (stereo not shown) [MSG011, 5-((5-(4′-Acetamido-2′,3′,4′,5′-tetrahydro-[1,1′-biphenyl]-4-yl)-6-chloro-1H-imidazo[4,5-b]pyridin-2-yl)oxy)-2-methylbenzoic acid] | – | – | – | – | at levels comparable to extreme energy stress
